Data as given in patent US11071731B2, “Allosteric modulators of the mu opioid receptor” (Chiromics, LLC, priority 2017, dated 2021).

Legend:
mu opioid receptor (MOR) [1] = biological target: T1, mu opioid receptor (MOR) (Homo sapiens, UniProt P35372); assay: PathHunter β-arrestin recruitment assay, PAM mode with EC20 endomorphin-1; type: cell-based
Method: The effects of MOR PAMs and MOR SAMs on receptor activity were assayed using the PathHunter enzyme complementation assay technology (DiscoveRx, CA). A description of the technology employed is as follows.
Beta-Arrestin Pathway: The PathHunter β-arrestin assay monitors the activation of a GPCR in a homogenous, non-imaging assay format using a technology developed by DiscoveRx called Enzyme Fragment Complementation (EFC) with beta-galactosidase (β-Gal) as the functional reporter. […] EA is fused to β-Arrestin and ED is fused to the GPCR of interest. When the GPCR is activated and β-arrestin is recruited to the receptor, ED and EA complementation occurs, restoring β-gal activity, which is measured using chemiluminescent PathHunter Detection Reagents.
In this manner an EC50 for each test compound, and percent maximal response for each test compound, were determined for both the β-arrestin and cAMP pathways. Though the pharmacological effects of a given signal bias can be hypothesized (Raehal et al. (2011) Pharmacol. Rev. 63:1001-1019), it is not possible to know with certainty which bias ratio will be most advantageous in a clinical setting. […] Kenakin 2015a, supra. The information associated with the compounds detailed herein is the first large data set available for the prediction of ligand bias for an MOR PAM.

mu opioid receptor (MOR) [2] = biological target: T1, mu opioid receptor (MOR); assay: Hit Hunter cAMP signaling assay (adenylyl cyclase inhibition), PAM mode with EC20 endomorphin-1; type: cell-based
[3] = maximal response for β-arrestin recruitment
[4] = β-arrestin recruitment, read-out: β-arr. EC50
[5] = adenylyl cyclase inhibition, read-out: cAMP EC50
[6] = maximal response for adenylyl cyclase inhibition
[7] = maximal response, β-arrestin recruitment
[8] = maximal response, adenylyl cyclase inhibition
[9] = cAMP EC50, adenylyl cyclase inhibition

T1 sequence (P35372 whole entry): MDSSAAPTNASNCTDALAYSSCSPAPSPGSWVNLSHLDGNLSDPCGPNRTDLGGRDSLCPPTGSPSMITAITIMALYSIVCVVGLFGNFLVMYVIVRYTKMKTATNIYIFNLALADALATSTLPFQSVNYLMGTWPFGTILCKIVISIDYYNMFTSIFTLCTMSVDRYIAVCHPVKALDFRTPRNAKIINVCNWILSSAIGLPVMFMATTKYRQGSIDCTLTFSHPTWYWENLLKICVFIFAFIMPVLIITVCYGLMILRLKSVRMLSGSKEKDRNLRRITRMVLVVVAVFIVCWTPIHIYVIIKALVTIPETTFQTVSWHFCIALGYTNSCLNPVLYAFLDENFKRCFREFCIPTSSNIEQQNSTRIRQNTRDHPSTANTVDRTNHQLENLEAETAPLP

SMILES	β-arr Max. Resp. (mu opioid receptor (MOR) [1]; [3])	EC50 (mu opioid receptor (MOR) [1]; [4])	EC50 (mu opioid receptor (MOR) [2]; [5])	cAMP Max. Resp. (mu opioid receptor (MOR) [2]; [6])	β-arr Max. Resp. (mu opioid receptor (MOR) [1]; [7])	cAMP Max. Resp. (mu opioid receptor (MOR) [2]; [8])	EC50 (mu opioid receptor (MOR) [2]; [9])	β-arrestin Max Response (mu opioid receptor (MOR) [1]; β-arrestin recruitment, activity switching by MOR PAMs)	EC50 (mu opioid receptor (MOR) [1]; β-arrestin recruitment, activity switching by MOR PAMs, read-out: β-arrestin EC50)	cAMP Max Resp. (mu opioid receptor (MOR) [2]; adenylyl cyclase inhibition, activity switching by MOR PAMs)	EC50 (mu opioid receptor (MOR) [2]; adenylyl cyclase inhibition, activity switching by MOR PAMs, read-out: cAMP EC50)
Fc1cnc(Cl)nc1N1CCCCCC1c1cccc(C(F)(F)F)n1 (centres unmarked) [compound 253]	F (F represents a maximal response of > 60%)	> 2100 nM	> 2100 nM	E (E represents a maximal response of 40-60%)	–	–	–	–	–	–	–
O=S(=O)(c1ccc(Cl)cc1F)N1CCCC(F)C1c1ccc(F)c(Br)c1 (centres unmarked) [Compound 37]	–	> 2100 nM	> 2100 nM	–	–	–	–	–	–	–	–
Fc1ccc(C2CC=CCN2c2nc(Cl)ncc2F)cc1Br (centres unmarked) [compound 244]	F (F represents a maximal response of > 60%)	< 700 nM	< 700 nM	D (D represents a maximal response of < 40%)	–	–	–	–	–	–	–
O=S(=O)(Cc1ccc(Cl)c(Cl)c1)N1C2CCC(C2)C1c1ccc(F)c(Br)c1 (centres unmarked) [Compound 181]	E (E represents a maximal response of 40-60%)	> 2100 nM	> 2100 nM	D (D represents a maximal response of < 40%)	–	–	–	–	–	–	–
Fc1cnc(Cl)nc1N1CC(F)CC1c1cccc(C(F)(F)F)n1 (centres unmarked) [compound 481]	–	> 2100 nM	> 2100 nM	–	D (D represents a maximal response of < 40%)	D (D represents a maximal response of < 40%)	–	–	–	–	–
Cc1nnc(C2CCCCN2c2nc(Cl)ncc2F)o1 (centres unmarked) [compound 363]	D (D represents a maximal response of < 40%)	< 700 nM	–	D (D represents a maximal response of < 40%)	–	–	< 700 nM	–	–	–	–
O=S(=O)(c1ccc(Cl)cc1)N1CCCCC1c1ccc2c(c1)CCO2 (racemic) [compound 66]	F (F represents a maximal response of > 60%)	> 2100 nM	> 2100 nM	E (E represents a maximal response of 40-60%)	–	–	–	–	–	–	–
FC(F)(F)c1cccc(C2CCCCN2Cc2cccc(Cl)c2)n1 (centres unmarked) [compound 170]	F (F represents a maximal response of > 60%)	700 to 2100 nM	–	E (E represents a maximal response of 40-60%)	–	–	< 700 nM	–	–	–	–
Fc1ccc(C2CCCCN2c2nc(Cl)ncc2F)cc1Cl (single isomer, unassigned) [compound 11]	F (F represents a maximal response of > 60%)	< 700 nM	–	E (E represents a maximal response of 40-60%)	–	–	–	–	–	–	–
COc1ccc(C2CCCCN2c2nc(Cl)ncc2F)cc1OC (centres unmarked) [compound 294]	D (D represents a maximal response of < 40%)	> 2100 nM	–	F (F represents a maximal response of > 60%)	–	–	> 2100 nM	–	–	–	–
[2H]C1(c2cccc(C(F)(F)F)c2)C(F)CCCN1Cc1cccc(Cl)c1 (centres unmarked) [compound 204]	F (F represents a maximal response of > 60%)	700 to 2100 nM	–	F (F represents a maximal response of > 60%)	–	–	700 to 2100 nM	–	–	–	–
O=S(=O)(c1ccc(Cl)cc1)N1CCCCC1c1cncc(C(F)(F)F)c1 (racemic) [compound 83]	D (D represents a maximal response of < 40%)	> 2100 nM	> 2100 nM	D (D represents a maximal response of < 40%)	–	–	–	D (D represents a maximal response of < 40%)	> 2100 nM	D (D represents a maximal response of < 40%)	> 2100 nM
Fc1cnc(Cl)nc1N1CCCCC1c1ccc2cncn2c1 (centres unmarked) [compound 334]	D (D represents a maximal response of < 40%)	< 700 nM	–	D (D represents a maximal response of < 40%)	–	–	< 700 nM	–	–	–	–
Fc1ccc(Cl)cc1CN1C2CCC(C2)C1c1cccc(C(F)(F)F)n1 (centres unmarked) [compound 444]	–	> 2100 nM	–	–	F (F represents a maximal response of > 60%)	D (D represents a maximal response of < 40%)	> 2100 nM	–	–	–	–
O=S(=O)(c1ccc(Cl)cc1)N1CCCCC1c1cccc(OC(F)(F)F)n1 (racemic) [compound 48]	F (F represents a maximal response of > 60%)	> 2100 nM	> 2100 nM	E (E represents a maximal response of 40-60%)	–	–	–	–	–	–	–
Fc1ccc(C2CCCCN2Cc2cc(Cl)cc(Cl)c2)cc1Cl (centres unmarked) [compound 151]	F (F represents a maximal response of > 60%)	> 2100 nM	–	D (D represents a maximal response of < 40%)	–	–	> 2100 nM	–	–	–	–
